Experiment [1] deals with spontaneously hypertensive rats. As to the kind of experiment: Hypotensive effect: systolic blood pressure of spontaneously hypertensive rats. It counts as in vivo. As to conditions: mmHg per method. The protocol: The hypotensive in vivo effect of the compounds of this invention was determined by measuring changes in the systolic blood pressure of spontaneously hypertensive rats with a Decker Caudal Plethysmograph. The compound being tested was administered to a group of 4 rats and their systolic pressure was determined prior to and at 1.5 and 4 hours after compound administration. Initial testing was done by oral administration of the compound. Results (mmHg) are expressed as decreases in systolic blood pressure.
(§1) The following examples illustrate the preparation of a representative number of compounds of this invention. After each example, the Ca+2 antagonist activity of the compound is presented in terms of percent relaxation of aortic tissue (P.R.) at 10-^5M concentration. […] Inhibition of super- precipitation (Antag. of Actin-Myosin interaction) is expressed as percent inhibition (mean ± standard error of the mean for at least 3 separate experiments) at a compound concentration. In the same manner, inhibition of myosin light chain phosphorylation (Antag. of MLCP) is expressed as a percent inhibition at a compound concentration. Similarly, the antihypertensive activity is reported in terms of millimetres mercury (mmHg) systolic blood pressure (B.P.) reduction at the stated time post 50 mg/kg oral dosing or other dosing as indicated.

For experiment [2], the target named is Ca^+2-calmodulin dependent myosin light chain phosphorylation (Bos taurus, UniProt Q28824). Briefly: Inhibition of myosin light chain phosphorylation (MLCP), Silver et al. As to conditions: read-out: Antag. of MLCP (percent inhibition of myosin light chain phosphorylation). Type of experiment: biochemical. The protocol: The data reported herein was obtained at a six minute time-point rather than the 1.5, 5 and 12 minute time points indicated in the superprecipita- tion assay of the Silver et al paper.
as §1

In experiment [3] the test system is isolated paced intact rabbit atria. As to the kind of experiment: Cardiac depressant (negative inotropic) effect in isolated paced rabbit atria. The settings on record: Oryctolagus cuniculus; rabbit atria paced at 3Hz, 30°C, cumulative dosing; read-out: IC25 (concentration which produces 25% inhibition of isometric force). How it is done:
The potential for detrimental cardiac depressant (negative inotropic) effects of the compounds of this invention was assessed in isolated paced intact rabbit atria. […] Muscles (N=5-9/compound) were stimulated at a frequency of 3Hz with a WPI stimulator for a 60 minute equilibration period. Changes in isometric force were recorded as described for the aortic smooth muscle experiments, supra. […]

Experiment [4] deals with arterial actin-myosin interactions. Briefly: Inhibition of superprecipitation (antagonism of actin-myosin interaction), Silver et al. It counts as biochemical. The settings on record: six minute time-point. How it is done:
. The data reported herein was obtained at a six minute time-point rather than the 1.5, 5 and 12 minute time points indicated in the superprecipita- tion assay of the Silver et al paper.
as §1

Experiment [5] has as its system rabbit aortic smooth muscle. Briefly: Ca+2 antagonism: relaxation of KCl-depolarized rabbit aortic smooth muscle strips. As to conditions: Oryctolagus cuniculus, 20 min, compound 1 x 10^-5M; 100mM KCl contraction; 20 minutes after addition; mean of two experiments; read-out: P.R. (percent relaxation of aortic tissue). How it is done: The composition of PSS was as follows (mM): NaCl 112,KCI 5, NaHCO3 25 KH2PO4 1, MgSO4 1.2, CaCl2 2.5, dextrose 10. The lower end of each tissue strip was attached to a fixed post and the upper end to a Statham UC-4 transducer. Changes in force development were recorded on a Beckman Dynograph Polygraphic Recorder.
Following equilibration, the muscles were contracted in a depolarizing solution of PSS in which 100mM KCI was substituted for an equimolar concentration of NaCI. Following attainment of steady- state isometric force (20 min.), the test compound was added to afford a final concentration of 1 x 10^-5M. The inhibitory effect, expressed as percent relaxation, was determined from the mean of two experiments twenty minutes after the addition of the compound being tested.
as §1

[6] abbreviates: dose 10mg/kg oral, at 1.5 hours.
The mark [7] stands for this setting: dose 25mg/kg oral, at 1.5 hours.

Bounds are passed on as bounds.

For `CC1=C(C(=O)OCCc2ccccc2)C(c2c(F)c(F)c(F)c(F)c2F)C2=C(CNCC2=O)N1` (stereo not shown) [Example 18, 1,4,5,6,7,8-Hexahydro-2-methyl-5-oxo-4-(pentafluorophenyl)-1,7-naphthyridine-3-carboxylic acid 2-phenylethyl ester], the “B.P. (systolic blood pressure reduction)” value in experiment [1] (setting [6]) is on record as -27 mm; in experiment [1] (dose 10mg/kg oral, at 4 hours), -24 mm. For the same molecule, in experiment [2], the inhibition at 25 µM was determined as 35%. For the same molecule, the inhibition at 50 µM in experiment [2] stood at 64%. The inhibition at 100 µM in experiment [2] worked out at 77 ± 3%. Moreover, in experiment [3], the IC25 was 1000 nM. For the same molecule, the “Antag. of Actin-Myosin (percent inhibition of superprecipitation)” value in experiment [4] (25µM) amounted to 42%; in experiment [4] (50µM) it was 65%; in experiment [4] (100µM), 78±2%. In addition, the inhibition at 10 µM in experiment [5] came to 48%.
With `CO[C@H](COC(=O)C1=C(C)NC2=C(C(=O)CNC2)C1c1c(F)c(F)c(F)c(F)c1F)c1ccccc1` (stereo partly drawn) [Example 7, 1,4,5,6,7,8-Hexahydro-2-methyl-5-oxo-4-(pentafluorophenyl)-1,7-naphthyridine-3-carboxylic acid (S)-2-methoxy-2-ohenylethyl ester], the “B.P. (systolic blood pressure reduction)” value in experiment [1] (setting [6]) is recorded as -51 mm; in experiment [1] (dose 10mg/kg oral, at 4 hours), -54 mm. Besides, the inhibition at 50 µM in experiment [2] amounted to 59%. In experiment [2], the inhibition at 100 µM is 74%. Further, in experiment [3], the IC25 was 65000 nM. The “Antag. of Actin-Myosin (percent inhibition of superprecipitation)” value in experiment [4] (50µM) amounted to 67%; in experiment [4] (100µM) it was 80%. Also, the inhibition at 10 µM in experiment [5] stood at 68%.
`COC(COC(=O)C1=C(C)NC2=C(C(=O)CNC2)C1c1cccc(Cl)c1C)c1ccccc1` (stereo not shown) [Example 10, 4-(3-chloro-2-methylphenyl)-1,4,5,6,7,8-hexahydro-2-methyl-5-oxo-1,7-naphthyridine-3-carboxylic acid 2-methoxy-2-phenylethyl ester]: the “B.P. (systolic blood pressure reduction)” value is -28 mm in experiment [1] (setting [6]) and -19 mm in experiment [1] (dose 10mg/kg oral, at 4 hours). Moreover, the inhibition at 25 µM in experiment [2] was 35 ± 5%. In addition, in experiment [2], the inhibition at 50 µM was 62 ± 1%. For the same molecule, the inhibition at 100 µM in experiment [2] amounted to 75 ± 3%. Further, the IC25 in experiment [3] was above 10000 nM. The “Antag. of Actin-Myosin (percent inhibition of superprecipitation)” value in experiment [4] (25µM) amounted to 45±3%; in experiment [4] (50µM), 68±2%; in experiment [4] (100µM), 76±2%. Further, in experiment [5], the inhibition at 10 µM was determined as 60%.
Turning to `CC1=C(C(=O)OCCOc2ccccc2)C(c2c(F)c(F)c(F)c(F)c2F)C2=C(CNCC2=O)N1` (racemic) [Example 2, 1,4,5,6,7,8-Hexahydro-2-methyl-5-oxo-4-(pentafluorophenyl)-1,7-naphthyridine-3-carboxylic acid 2-phenoxvethvl ester], the “B.P. (systolic blood pressure reduction)” value in experiment [1] (setting [6]) was -39 mm. In experiment [2], the inhibition at 25 µM amounted to 24 ± 3%, the inhibition at 50 µM was found to be 54 ± 4% and the inhibition at 100 µM is 69 ± 3%. In addition, the IC25 in experiment [3] turned out to be 1000 nM. In addition, the “Antag. of Actin-Myosin (percent inhibition of superprecipitation)” value in experiment [4] (25µM) came to 28± 2%. Besides, the “Antag. of Actin-Myosin (percent inhibition of superprecipitation)” value in experiment [4] (50µM) is on record as 58± 4%. Also, the inhibition at 10 µM in experiment [5] is 71%.
On to `CC1=C(C(=O)OCCCCOc2ccccc2)C(c2c(F)c(F)c(F)c(F)c2F)C2=C(CNCC2=O)N1` (stereo not shown) [Example 21, 1,4,5,6,7,8-Hexahydro-2-methyl-5-oxo-4-(pentafluorophenyl)-1,7-naphthyridine-3-carboxylic acid 4-phenoxvbutvl ester], for which the “B.P. (systolic blood pressure reduction)” value in experiment [1] (dose 25mg/kg oral, at 4 hours) is given as -49 mm. Moreover, the inhibition at 100 µM in experiment [2] was 77%. The IC25 in experiment [3] was 1000 nM. Moreover, the “Antag. of Actin-Myosin (percent inhibition of superprecipitation)” value in experiment [4] (100µM) amounted to 80%. Besides, in experiment [5], the inhibition at 10 µM amounted to 61%.
Consider `CC1=C(C(=O)OCCOc2cccc(Cl)c2Cl)C(c2c(F)ccc(Cl)c2Cl)C2=C(CNCC2=O)N1` (stereo not shown) [Example 25, 4-(2,3-dichloro-6-fluorophenyl)-1,4,5,6,7,8-hexahydro-2-methyl-5-oxo-1,7-naphthyridine-3-carboxylic acid 2-(2,3-dichlorophenoxy)ethyl ester], for which the “B.P. (systolic blood pressure reduction)” value in experiment [1] (dose 5mg/kg oral, at 1.5 hours) is -18 mm; in experiment [1] (dose 5mg/kg oral, at 4 hours), -40 mm; in experiment [1] (setting [7]), -74 mm; in experiment [1] (dose 25mg/kg oral, at 4 hours), -70 mm. In addition, the results for the inhibition at 10 µM in experiment [2] (10µM) and in experiment [5] were 32 ± 8% and 59%, respectively. Moreover, in experiment [2], the inhibition at 25 µM came to 48 ± 3%. Moreover, the inhibition at 50 µM in experiment [2] was determined as 60 ± 4%. In addition, the inhibition at 100 µM in experiment [2] turned out to be 67 ± 2.3%. For the same molecule, the IC25 in experiment [3] was found to be 700 nM. In addition, the “Antag. of Actin-Myosin (percent inhibition of superprecipitation)” value in experiment [4] (10µM) came to 34±7%; in experiment [4] (25µM), 55±2.5%; in experiment [4] (50µM), 67±5%; in experiment [4] (100µM), 73±2.4%.
With `COC(COC(=O)C1=C(C)NC2=C(C(=O)CNC2)C1c1ccccc1C(F)(F)F)c1ccccc1` (stereo not shown) [Example 12, 1,4,5,6,7,8-Hexahydro-2-methyl-5-oxo-4-[2-(trifluoromethyl)phenyl]-1,7-naphthyridine-3-carboxylic acid 2-methoxv-2-ohenvlethvl ester], the “B.P. (systolic blood pressure reduction)” value in experiment [1] (setting [7]) is given as -56 mm; in experiment [1] (dose 25mg/kg oral, at 4 hours), -56 mm. Further, the inhibition at 100 µM in experiment [2] was determined as 24%. Moreover, the IC25 in experiment [3] came out at 2000 nM. In experiment [4] (100µM), the “Antag. of Actin-Myosin (percent inhibition of superprecipitation)” value is given as 30%. Also, the inhibition at 10 µM in experiment [5] came to 39%.

(Values after patent publication EP0211584A1, “Antihypertensive agents” (AMERICAN HOME PRODUCTS CORPORATION, priority 1985, dated 1987).)
